Patent US7507739B2, “6-[(substituted)phenyl]triazolopyrimidines as anticancer agents” (Wyeth, priority 2003, dated 2009)

Experiments:
HeLa cells = assay: Cell cycle analysis with HeLa cells; assay type: cell-based, human; conditions: 18 hr
tubulin heterodimer = assay: Competitive binding test, [3H]vinblastine; design: species or system bovine; conditions: [3H]vinblastine 100 nM
MAP-rich tubulin = assay: Tubulin polymerization test with MAP-rich tubulin; assay type: biochemical, bovine; conditions: 0.3 μM compound, 20 min, fold enhancement over control
How it was run: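 Bovine brain MAP-rich tubulin (1.3 mg/mL) in PEM buffer pH 6.9 with 1 mM GTP, compounds at 0.3 μM final (0.3% DMSO), 24° for 60 min. Turbidity read at 340 nm each minute, baseline-subtracted; mean A340 at 20 min divided by solvent control gives fold enhancement.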

`C[C@H](Nc1c(-c2c(F)cc(OCCCN(C)C)cc2F)c(Cl)nc2ncnn12)C(F)(F)F.Cl` [Example 1a, 5-chloro-6-{4-[3-(dimethylamino)propoxy]-2,6-difluorophenyl}-N-[(1S)-2,2,2-trifluoro-1-methylethyl][1,2,4]triazolo[1,5-a]pyrimidin-7-amine hydrogen chloride Salt] was tested. Which “Percent in Cell Cycle Phase >4N” value (HeLa cells; 20 nM) did it give?
Its value is 2%.

And the “Percent in Cell Cycle Phase Apop” value (HeLa cells; 20 nM)?
The value was 13%.

What about the “Percent in Cell Cycle Phase G1” value (HeLa cells; 20 nM) of the same compound?
Its value is 54%.

What about the “Percent in Cell Cycle Phase G2/M” value (HeLa cells; 20 nM) of the same compound?
Its value is 14%.

What about the “Percent in Cell Cycle Phase S” value (HeLa cells; 20 nM) of the same compound?
The value was 18%.

What about the “Percent in Cell Cycle Phase >4N” value (HeLa cells; 30 nM) of the same compound?
Its value is 1%.

And the “Percent in Cell Cycle Phase Apop” value (HeLa cells; 30 nM)?
The value was 38%.

What about the “Percent in Cell Cycle Phase G1” value (HeLa cells; 30 nM) of the same compound?
The value was 35%.

And the “Percent in Cell Cycle Phase G2/M” value (HeLa cells; 30 nM)?
Its value is 14%.

And the “Percent in Cell Cycle Phase S” value (HeLa cells; 30 nM)?
The value was 12%.

What about the “Percent in Cell Cycle Phase >4N” value (HeLa cells; 40 nM) of the same compound?
Its value is 1%.

What about the “Percent in Cell Cycle Phase Apop” value (HeLa cells; 40 nM) of the same compound?
Its value is 71%.

What about the “Percent in Cell Cycle Phase G1” value (HeLa cells; 40 nM) of the same compound?
Its value is 7%.

And the “Percent in Cell Cycle Phase G2/M” value (HeLa cells; 40 nM)?
The value was 13%.

What about the “Percent in Cell Cycle Phase S” value (HeLa cells; 40 nM) of the same compound?
The value was 8%.

What about the “Percent in Cell Cycle Phase Apop” value (HeLa cells; 40 nM, listed as example 1a) of the same compound?
The value was “about 70%”.

What about the “Percent in Cell Cycle Phase G2/M” value (HeLa cells; 40 nM, listed as example 1a) of the same compound?
The value was “no increase”.

What about the “Percent in Cell Cycle Phase >4N” value (HeLa cells; 50 nM) of the same compound?
The value was 2%.

And the “Percent in Cell Cycle Phase Apop” value (HeLa cells; 50 nM)?
The value was 63%.

What about the “Percent in Cell Cycle Phase G1” value (HeLa cells; 50 nM) of the same compound?
Its value is 6%.

What about the “Percent in Cell Cycle Phase G2/M” value (HeLa cells; 50 nM) of the same compound?
Its value is 20%.

What about the “Percent in Cell Cycle Phase S” value (HeLa cells; 50 nM) of the same compound?
The value was 9%.

And the “Percent in Cell Cycle Phase >4N” value (HeLa cells; 60 nM)?
Its value is 3%.

What about the “Percent in Cell Cycle Phase Apop” value (HeLa cells; 60 nM) of the same compound?
Its value is 52%.

And the “Percent in Cell Cycle Phase G1” value (HeLa cells; 60 nM)?
Its value is 5%.

What about the “Percent in Cell Cycle Phase G2/M” value (HeLa cells; 60 nM) of the same compound?
Its value is 32%.

And the “Percent in Cell Cycle Phase S” value (HeLa cells; 60 nM)?
The value was 10%.

What about the “Percent in Cell Cycle Phase >4N” value (HeLa cells; 70 nM) of the same compound?
The value was 4%.

And the “Percent in Cell Cycle Phase Apop” value (HeLa cells; 70 nM)?
Its value is 26%.

And the “Percent in Cell Cycle Phase G1” value (HeLa cells; 70 nM)?
The value was 3%.

And the “Percent in Cell Cycle Phase G2/M” value (HeLa cells; 70 nM)?
Its value is 57%.

And the “Percent in Cell Cycle Phase S” value (HeLa cells; 70 nM)?
The value was 9%.

And the “Percent in Cell Cycle Phase >4N” value (HeLa cells; 80 nM)?
The value was 5%.

What about the “Percent in Cell Cycle Phase Apop” value (HeLa cells; 80 nM) of the same compound?
The value was 24%.

What about the “Percent in Cell Cycle Phase G1” value (HeLa cells; 80 nM) of the same compound?
Its value is 4%.

And the “Percent in Cell Cycle Phase G2/M” value (HeLa cells; 80 nM)?
The value was 58%.

What about the “Percent in Cell Cycle Phase S” value (HeLa cells; 80 nM) of the same compound?
Its value is 9%.

And the “Percent in Cell Cycle Phase >4N” value (HeLa cells; 90 nM)?
The value was 6%.

And the “Percent in Cell Cycle Phase Apop” value (HeLa cells; 90 nM)?
Its value is 22%.

And the “Percent in Cell Cycle Phase G1” value (HeLa cells; 90 nM)?
Its value is 5%.

And the “Percent in Cell Cycle Phase G2/M” value (HeLa cells; 90 nM)?
The value was 58%.

And the “Percent in Cell Cycle Phase S” value (HeLa cells; 90 nM)?
The value was 10%.

What about the “Percent in Cell Cycle Phase >4N” value (HeLa cells; 100 nM) of the same compound?
The value was 5%.

What about the “Percent in Cell Cycle Phase Apop” value (HeLa cells; 100 nM) of the same compound?
The value was 24%.

And the “Percent in Cell Cycle Phase G1” value (HeLa cells; 100 nM)?
Its value is 4%.

And the “Percent in Cell Cycle Phase G2/M” value (HeLa cells; 100 nM)?
Its value is 58%.

And the “Percent in Cell Cycle Phase S” value (HeLa cells; 100 nM)?
Its value is 10%.

And the “Percent in Cell Cycle Phase >4N” value (HeLa cells; 110 nM)?
Its value is 5%.

What about the “Percent in Cell Cycle Phase Apop” value (HeLa cells; 110 nM) of the same compound?
The value was 24%.

And the “Percent in Cell Cycle Phase G1” value (HeLa cells; 110 nM)?
Its value is 6%.

What about the “Percent in Cell Cycle Phase G2/M” value (HeLa cells; 110 nM) of the same compound?
Its value is 53%.

What about the “Percent in Cell Cycle Phase S” value (HeLa cells; 110 nM) of the same compound?
Its value is 13%.

What about the “Percent in Cell Cycle Phase >4N” value (HeLa cells; 120 nM) of the same compound?
Its value is 5%.

And the “Percent in Cell Cycle Phase Apop” value (HeLa cells; 120 nM)?
The value was 28%.

What about the “Percent in Cell Cycle Phase G1” value (HeLa cells; 120 nM) of the same compound?
The value was 6%.

What about the “Percent in Cell Cycle Phase G2/M” value (HeLa cells; 120 nM) of the same compound?
The value was 48%.

And the “Percent in Cell Cycle Phase S” value (HeLa cells; 120 nM)?
The value was 14%.

What about the “[3H]Vinblastine binding, percent of control without competitor, Mean” value (tubulin heterodimer) of the same compound?
The value was 12%.

What about the “A340 Compound/A340 Control” value (MAP-rich tubulin) of the same compound?
Its value is 6.1.

`CC[C@]1(O)C[C@H]2CN(CCc3c([nH]c4ccccc34)[C@@](C(=O)OC)(c3cc4c(cc3OC)N(C=O)[C@H]3[C@@](O)(C(=O)OC)[C@H](OC(C)=O)[C@]5(CC)C=CCN6CC[C@]43[C@@H]65)C2)C1` [Vincristine, reference compound] was tested. Which “Percent in Cell Cycle Phase >4N” value (HeLa cells; 1 nM) did it give?
Its value is 2%.

What about the “Percent in Cell Cycle Phase Apop” value (HeLa cells; 1 nM) of the same compound?
Its value is 6%.

What about the “Percent in Cell Cycle Phase G1” value (HeLa cells; 1 nM) of the same compound?
Its value is 57%.

What about the “Percent in Cell Cycle Phase G2/M” value (HeLa cells; 1 nM) of the same compound?
Its value is 17%.

What about the “Percent in Cell Cycle Phase S” value (HeLa cells; 1 nM) of the same compound?
Its value is 18%.

What about the “Percent in Cell Cycle Phase >4N” value (HeLa cells; 2 nM) of the same compound?
Its value is 2%.

And the “Percent in Cell Cycle Phase Apop” value (HeLa cells; 2 nM)?
The value was 8%.

And the “Percent in Cell Cycle Phase G1” value (HeLa cells; 2 nM)?
Its value is 55%.

And the “Percent in Cell Cycle Phase G2/M” value (HeLa cells; 2 nM)?
Its value is 18%.

What about the “Percent in Cell Cycle Phase S” value (HeLa cells; 2 nM) of the same compound?
Its value is 18%.

And the “Percent in Cell Cycle Phase >4N” value (HeLa cells; 4 nM)?
Its value is 2%.

What about the “Percent in Cell Cycle Phase Apop” value (HeLa cells; 4 nM) of the same compound?
Its value is 9%.

What about the “Percent in Cell Cycle Phase G1” value (HeLa cells; 4 nM) of the same compound?
Its value is 50%.

And the “Percent in Cell Cycle Phase G2/M” value (HeLa cells; 4 nM)?
The value was 23%.

And the “Percent in Cell Cycle Phase S” value (HeLa cells; 4 nM)?
Its value is 17%.

And the “Percent in Cell Cycle Phase >4N” value (HeLa cells; 6 nM)?
Its value is 3%.

What about the “Percent in Cell Cycle Phase Apop” value (HeLa cells; 6 nM) of the same compound?
Its value is 11%.

And the “Percent in Cell Cycle Phase G1” value (HeLa cells; 6 nM)?
Its value is 45%.

And the “Percent in Cell Cycle Phase G2/M” value (HeLa cells; 6 nM)?
Its value is 27%.

And the “Percent in Cell Cycle Phase S” value (HeLa cells; 6 nM)?
The value was 15%.

What about the “Percent in Cell Cycle Phase >4N” value (HeLa cells; 8 nM) of the same compound?
Its value is 3%.

And the “Percent in Cell Cycle Phase Apop” value (HeLa cells; 8 nM)?
Its value is 12%.

And the “Percent in Cell Cycle Phase G1” value (HeLa cells; 8 nM)?
Its value is 40%.

And the “Percent in Cell Cycle Phase G2/M” value (HeLa cells; 8 nM)?
The value was 32%.

And the “Percent in Cell Cycle Phase S” value (HeLa cells; 8 nM)?
Its value is 14%.

What about the “Percent in Cell Cycle Phase >4N” value (HeLa cells; 10 nM) of the same compound?
The value was 3%.

And the “Percent in Cell Cycle Phase Apop” value (HeLa cells; 10 nM)?
The value was 16%.

And the “Percent in Cell Cycle Phase G1” value (HeLa cells; 10 nM)?
Its value is 27%.

And the “Percent in Cell Cycle Phase G2/M” value (HeLa cells; 10 nM)?
The value was 41%.

And the “Percent in Cell Cycle Phase S” value (HeLa cells; 10 nM)?
Its value is 13%.

And the “Percent in Cell Cycle Phase >4N” value (HeLa cells; 15 nM)?
The value was 4%.

What about the “Percent in Cell Cycle Phase Apop” value (HeLa cells; 15 nM) of the same compound?
Its value is 19%.

And the “Percent in Cell Cycle Phase G1” value (HeLa cells; 15 nM)?
The value was 20%.

And the “Percent in Cell Cycle Phase G2/M” value (HeLa cells; 15 nM)?
Its value is 44%.

What about the “Percent in Cell Cycle Phase S” value (HeLa cells; 15 nM) of the same compound?
The value was 14%.

What about the “Percent in Cell Cycle Phase >4N” value (HeLa cells; 20 nM) of the same compound?
Its value is 4%.

And the “Percent in Cell Cycle Phase Apop” value (HeLa cells; 20 nM)?
The value was 18%.

What about the “Percent in Cell Cycle Phase G1” value (HeLa cells; 20 nM) of the same compound?
Its value is 15%.

What about the “Percent in Cell Cycle Phase G2/M” value (HeLa cells; 20 nM) of the same compound?
Its value is 51%.

What about the “Percent in Cell Cycle Phase S” value (HeLa cells; 20 nM) of the same compound?
Its value is 12%.

And the “Percent in Cell Cycle Phase >4N” value (HeLa cells; 25 nM)?
The value was 4%.

And the “Percent in Cell Cycle Phase Apop” value (HeLa cells; 25 nM)?
The value was 17%.

What about the “Percent in Cell Cycle Phase G1” value (HeLa cells; 25 nM) of the same compound?
Its value is 14%.

What about the “Percent in Cell Cycle Phase G2/M” value (HeLa cells; 25 nM) of the same compound?
Its value is 52%.

And the “Percent in Cell Cycle Phase S” value (HeLa cells; 25 nM)?
Its value is 13%.

And the “Percent in Cell Cycle Phase >4N” value (HeLa cells; 30 nM)?
The value was 4%.

What about the “Percent in Cell Cycle Phase Apop” value (HeLa cells; 30 nM) of the same compound?
Its value is 19%.

And the “Percent in Cell Cycle Phase G1” value (HeLa cells; 30 nM)?
Its value is 12%.

And the “Percent in Cell Cycle Phase G2/M” value (HeLa cells; 30 nM)?
Its value is 55%.

And the “Percent in Cell Cycle Phase S” value (HeLa cells; 30 nM)?
Its value is 11%.

And the “Percent in Cell Cycle Phase >4N” value (HeLa cells; 40 nM)?
Its value is 4%.

What about the “Percent in Cell Cycle Phase Apop” value (HeLa cells; 40 nM) of the same compound?
The value was 18%.

What about the “Percent in Cell Cycle Phase G1” value (HeLa cells; 40 nM) of the same compound?
Its value is 8%.

What about the “Percent in Cell Cycle Phase G2/M” value (HeLa cells; 40 nM) of the same compound?
Its value is 57%.

And the “Percent in Cell Cycle Phase S” value (HeLa cells; 40 nM)?
Its value is 13%.

What about the “[3H]Vinblastine binding, percent of control without competitor, Mean” value (tubulin heterodimer) of the same compound?
Its value is 5%.

And the “A340 Compound/A340 Control” value (MAP-rich tubulin)?
The value was 0.
